These results are taken from patent USRE42013E1, “Macrocyclic modulators of the ghrelin receptor” (Tranzyme Pharma Inc., priority 2003, dated 2010).

A word on the EC50: it is the concentration at which the effect is half-maximal.

The conditions of data set [1]: from CCC[C@@H](C(=O)N(C)[C@H](C)C(=O)N[C@H](Cc1ccccc1)C(=O)O)N(C[C@@H](C)Oc1ccccc1CCCN)C(=O)OC(C)(C)C; amide bond; DEPBT; THF; 25.0 mM; 25.0 °C; 16.0 h.
The subject of a further data set is morphine-treated rats. As to the kind of experiment: Gastric emptying and gastrointestinal transit in model of opioid-delayed gastric emptying. The format is in vivo, rat (Sprague-Dawley). The following applies: 3 mg/kg s.c. The source says: 7. The Effect of Compounds of the Invention on Gastric Emptying and Gastrointestinal Transit in a Model of Opioid-Delayed Gastric Emptying
Opioid analgesics, such as morphine, are well known to delay gastrointestinal transit which is an important side-effect for this class of drugs. The clinical term for this syndrome is opioid bowel dysfunction (OBD). Importantly, patients recovering from abdominal surgery experience post-operative ileus that is further exacerbated by concomitant opioid therapy for post-surgical pain.
• 1. […] Methods • 1. Rats (male, Sprague-Dawley, 250-300 g) are implanted with jugular vein catheters to accommodate dosing of test articles. • 2. Overnight-fasted rats are administered morphine (3 mg/kg s.c.). • 3. […] Radioactivity (^99mTc) in each tissue isolate is measured as a means of measuring the transit of the meal. Results

For data set [2], the system named is gastric emptying in fasted rats. The data set can be described thus: Gastric emptying in fasted rats (phenol red methylcellulose meal). The format is in vivo, rat (Wistar). The protocol: To examine the effects of compounds of the invention in a model for gastroparesis, compounds were evaluated for possible effects on gastric emptying in fasted rats.
GHRP-6 and test samples were dissolved in vehicle of 9% HPBCD/0.9% NaCl. Immediately following oral administration of methylcellulose (2%) containing phenol red (0.05%) (2 mL/rat), test substances or vehicle (9% HPBCD/0.9% NaCl) were each administered intravenously (i.v.) at a dosing volume of 5 mL/kg.
Male Wistar rats were provided by LASCO (A Charles River Licensee Corporation, Taiwan). Space allocation for 6 animals was 45×23×15 cm. Animals were housed in APEC® cages and maintained in a controlled temperature (22° C.-24° C.) and humidity (60%-80%) environment with 12 h light, 12 h dark cycles for at least one week in the laboratory prior to being used. Free access to standard lab chow for rats (Lab Diet, Rodent Diet, PMI Nutrition International, USA) and tap water was granted. All aspects of this work including housing, experimentation and disposal of animals were performed in general accordance with the Guide for the Care and Use of Laboratory Animals (National Academy Press, Washington, D.C., 1996).
Test substances were each administered intravenously to a group of 5 O/N-fasted Wistar derived male rats weighing 200±20 g immediately after methylcellulose (2%) containing phenol red (0.05%) was administered orally at 2 mL/animal. […] Following protein precipitation by 20% trichloroacetic acid (0.5 mL) and re-alkalization of the supernatant with 0.1 N NaOH, total phenol red remaining in the stomach was determined by a colorimetric method at 560 nm. A 30 percent or more (≧30%) increase in gastric emptying, detected as the decrease in phenol red concentration in the stomach relative to the vehicle control group, is considered significant.
• 1. […] Total phenol red remaining in the stomach was quantified by a colorimetric method at 560 nm. • 5. A >30% increase in gastric emptying, detected based on the phenol red concentration in comparison to the control group, is considered significant. […]

Data set [3] concerns the target human ghrelin receptor (hGHS-R1a) (Homo sapiens, UniProt Q92847). Conditions: Table 4; functional (agonist) activity at human ghrelin receptor; TFA salts unless otherwise noted.
From the text: B. Aequorin Functional Assay (Ghrelin Receptor)
This cell line is typically constructed by transfection of the human ghrelin receptor into CHO-K1 cells co-expressing Gα16 and the mitochondrially targeted Aequorin (Ref #ES-WT-A5). • 1. […] Assay buffer: DMEM (Dulbecco's Modified Eagles Medium) containing 0.1% BSA (bovine serum albumin; pH 7.0). • 3. Coelenterazine (Molecular Probes, Leiden, The Netherlands). Final test concentrations (N=8) for compounds of the invention: 10, 1, 0.3, 0.1, 0.03, 0.01, 0.003, 0.001 μM. Compound Handling
Assay plates were then prepared by appropriate dilution in DMEM medium containing 0.1% BSA. Under these conditions, the maximal final DMSO concentration in the assay was <0.6%.
AequoScreen™ cells were collected from culture plates with Ca^2+ and Mg^2+-free phosphate buffered saline (PBS) supplemented with 5 mM EDTA, pelleted for 2 min at 1000×g, re-suspended in DMEM—Ham's F12 containing 0.1% BSA at a density of 5×10^6 cells/mL, and incubated O/N at rt in the presence of 5 μM coelenterazinc. After loading, cells were diluted with assay buffer to a concentration of 5×10^5 cells/mL.
For agonist testing, 50 μL of the cell suspension was mixed with 50 μL of the appropriate concentration of test compound or ghrelin (reference agonist) in 96-well plates (duplicate samples). Ghrelin (reference agonist) was tested at several concentrations concurrently with the test compounds in order to validate the experiment. The emission of light resulting from receptor activation in response to ghrelin or test compounds was recorded using the Hamamatsu FDSS 6000 reader (Hamamatsu Photonics K.K., Japan).
Analysis and Expression of Results
Results were expressed as Relative Light Units (RLU). […] EC50, Hill slope and % Emax values are reported.
Key Aspects of Method • 1. Assay performed on CHO-K1 cells expressing the transfected, cloned human ghrelin receptor (hGHS-R1a) and Gα16. • 2. Suspended cells incubated O/N with coelenterazine. • 3. Stimulation of hGHS-R1a activates Gα16, causing intercellular Ca2+ release which ultimately leads to the oxidation of coelenterazine and the emission of a quantitative luminescent signal. • 4. Ghrelin was used as the positive control. • 5.

Chain of human ghrelin receptor (hGHS-R1a) (Q92847 whole entry): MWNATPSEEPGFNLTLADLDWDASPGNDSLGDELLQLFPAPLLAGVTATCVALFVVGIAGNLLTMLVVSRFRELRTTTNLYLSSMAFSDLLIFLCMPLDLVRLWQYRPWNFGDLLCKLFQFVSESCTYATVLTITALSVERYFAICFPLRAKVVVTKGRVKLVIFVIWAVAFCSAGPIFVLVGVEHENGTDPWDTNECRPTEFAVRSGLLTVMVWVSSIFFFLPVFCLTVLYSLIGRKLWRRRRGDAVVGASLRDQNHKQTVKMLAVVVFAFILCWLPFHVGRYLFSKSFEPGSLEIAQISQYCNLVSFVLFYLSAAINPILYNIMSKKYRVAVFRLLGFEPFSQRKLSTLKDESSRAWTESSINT

On to `CCC[C@H]1C(=O)N(C)[C@H](C)C(=O)N[C@H](Cc2ccccc2)C(=O)NCCCc2ccccc2O[C@H](C)CN1C(=O)OC(C)(C)C`, for which the ring closure, yield of all isomers in data set [1] turned out to be 80%. As to `CN1CC[C@]23c4c5ccc(O)c4O[C@H]2[C@@H](O)C=C[C@H]3[C@H]1C5` [Morphine], the “gastric emptying and intestinal transit” value in the data set with morphine-treated rats was “significantly delayed gastric emptying and intestinal transit”. Regarding `CCC(C)C1NCCOc2ccccc2CCCNC(=O)C(Cc2ccc(Cl)cc2)NC(=O)C(C)N(C)C1=O` (centres unmarked) [compound 25], in data set [2] (30 μg/kg), the gastric emptying result is recorded as “demonstrated gastric emptying”. In addition, the “increase in gastric emptying relative to the vehicle control group” value in data set [2] (100 μg/kg i.v., fasted rats, 15 min) came to 39%. Moreover, the EC50 in data set [3] is 1 to 100 nM.
